According to patent US5587509A, “Caged caboxyl compounds and use thereof” (Cornell Research Foundation, Inc., priority 1995, dated 1996):
Where two headings read alike, the source gives them in different places.

How the values were obtained:
[1] = test system: glycine receptor channels; assay: whole-cell current recording, cell-flow with mixer (effect of the caged compound or photoproduct on glycine receptor channels); assay type: cell-based, mouse; conditions: for effect on glycine receptors or their response to glycine: mouse cerebral cortical neurons, pH 7.1
Experimental: (§1) Whole-cell current recording was performed as follows. The preparation of embryonic mouse cortical cells was as described by Geetha et al. (Biochemistry 31:5488-5499 (1992)). The extracellular recording buffer was 145 mM NaCl, 1.8 MM MgCl2, 1 mM CaCl2 and 10 mM Hepes (pH 7.4) and the intracellular buffer was 145 mM CsCl, 1 mM CaCl2, 10 mM EGTA [ethyleneglycol-bis-(beta-aminoethyl ether) N,N,N',N'-tetraacetic acid] and 10 mM Hepes (pH 7.2) The flow method used to equilibrate receptors on the surface of a single cell with ligands within 10 ms has been described by Udgaonkar et al (Proc. Natl. Acad. Sci. USA, 84:8758-8762 (1987)). The whole-cell current responses were determined in mouse cortical neurons, pH […], room temperature (22° C.). Caged glycine solutions at pH 4.0 in extracellular buffer but containing only 5 mM Hepes were mixed in 1:1 proportions with extracellular recording buffer containing 20 mM Hepes at pH 7.4 using a low volume T-tube mixer before the solutions entered the U-tube that delivered the solution stream at pH 7.1 to the cell at a linear flow rate of 0.5 cm s^-1. The whole-cell current due to opening of glycine receptor channels was recorded using the technique of Hamill et al. (Pflugers Arch, 391:85-100 (1981)). All other details of the cell-flow technique, and the combination of the cell-flow technique with the laser-pulse photolysis technique in which the whole-cell current is measured after photolysis of caged neurotransmitter, were as described by Matsubara et al (Biochemistry, 31:5507-5514 (1992)). Hydrolysis of the caged glycine before it was applied to a cell was prevented by the mixer strategy.
Specifically, the caged glycine solution with and without free glycine at pH 4.0 was rapidly mixed with extracellular buffer to produce a solution of pH 7.1 before flowing it over the cell. A control solution of 85 μM free glycine (170 μM glycine in extracellular buffer mixed with pH 4 buffer used to stabilize the ester) is shown by the solid trace in FIG. 3. […] Identical current responses were obtained when 170 μM glycine in pH 7.4 buffer was mixed with pH 4 buffer when the solutions were altemately applied from the two different supply lines of the mixer (data not shown).

[2] = laser-pulse photolysis, transient absorbance (photolysis speed and product quantum yield); assay type: physicochemical
Experimental: (§2) To evaluate the photolysis characteristics of the 2-methoxy-5-nitro glycine ester of Example I, laser pulse photolysis was performed and the results thereof are shown in FIG. 2 by the rapid absorbance jump produced by the photolysis of the ester. The light source used to initiate the photolysis reaction was a Lumonics TE861M excimer laser. The lasing medium was either 2% N2 in helium, which produced a primary energy of 6 mJ at 337 nm with a 4 ns pulse width, or a XeCl mix that produced 70 rnJ at 308 nm in 6 ns pulses. For cell photolysis, the 337 nm light was delivered to the microscope stage for use in whole-cell recording measurements with a 300 μm core optical fiber (FiberGuide Industries); 10% of the primary energy was typically coupled through the fiber to the cell preparation. Rapid absorbance changes of caged compound solutions were measured with a transient absorbance spectrophotometer in which 308 nm light from the primary output of the laser was focussed into a 2×2 mm quartz cuvet and the absorbance changes produced were monitored at right angles to the laser beam with a single beam transient spectrophotometer whose signal transfer parameters effectively produced 500 kHz filtering of the rapid absorbance jump. The photocurrent was amplified with a Thorn EMI model Al preamplifier, which also acted as a low pass filter with cutoff dependent on the amplification selected; the cutoff frequencies were between 50 KHz and 50 MHz. The rapid absorbance jump produced in the caged ester solution by single laser flashes could be digitized at up to 2 MHz with a digital oscilloscope and in each case the preamplifier filtering was matched to the digitization rate of the data collection. Measurements of the pulsed UV light energy for quantum yield determinations were made with a Gentec ED200 calibrated thermopile.
Absorbance measurements of the fast jump were made over the range 350 to 450 nm and the resulting profile matched the absorbance spectrum of the expected 2-methoxy-5-nitrophenol. Measurements of triplet quenching in the reaction of 2-methoxy-5-nitrophenyl acetate by Kuzmic et al. (supra) indicate that the lifetime of the photohydrolysis reaction is 0.15 μs. The maximum time resolution of the transient absorbance measurements in our study is 0.5 μs.
The product quantum yield from photolysis of the caged glycine was estimated by comparison to the photolysis of 2-methoxy-5-nitrophenyl acetate, which was used as an actinometric standard. A quantum yield of 0.22 was found for a 1 mM solution of 2-methoxy-5-nitrophenyl acetate in 100 mM phosphate buffer at pH 7.0 that also contained 20% acetonitrile to substituted for caged glycine.

[3] = cited from earlier work
acetylcholine receptor = conditions: Milburn et al.; cited from earlier work
[4] = spontaneous hydrolysis in buffer followed spectrophotometrically; assay type: physicochemical
Experimental: A 1.1 mM solution of the caged glycine of Example I was prepared in extracellular recording buffer at pH 7.1. […] The caged glycine ester was rapidly dissolved in buffers to produce approximately 800 μM solutions of the caged compound and immediately transferred to a 2×2 cuvette in a Hewlett Packard model 8452A diode array spectrophotometer set up to collect spectra at timed intervals. The initial rates of the hydrolysis reaction were obtained from absorbance measurements at 310, 360 and 384 nm after subtraction of the absorbance of the completely hydrolyzed solution. The spectra of the fully hydrolyzed solutions were identical in all cases to reference spectra of 2-methoxy-5-nitrophenol at the different pH values. The upper trace at 310 nm represents the spectrum of the compound before hydrolysis. The lower trace at 310 nm corresponds to the fully hydrolyzed material and matches the spectrum of 2-methoxy-5-nitrophenol at pH 7.0. The spectra were acquired at 0, 1, 2, 3, 4, 6, 8, 11 and 60 min after the initial rapid dissolution in buffer. All measurements were performed at room temperature (22°-24° C.).

[5] = test system: glycine receptor channels; assay: whole-cell current after laser-pulse photolysis of caged glycine (cell-flow laser-pulse photolysis); assay type: cell-based, mouse; conditions: for rate of rising phase of whole-cell current: 700 μM caged compound, pH 7.1
Experimental: as §2
as §1, with “strategy. […]” for “strategy.”

SMILES: COc1ccc([N+](=O)[O-])cc1O [2-methoxy-5-nitrophenol]
- effect on glycine receptors or their response to glycine [1]: Neither the caged compound nor the 2-methoxy-5-nitrophenol photolysis product affected the glycine receptors or modified their response to glycine

SMILES: COc1ccc([N+](=O)[O-])cc1OC(C)=O [2-methoxy-5-nitrophenyl acetate, reference compound]
- quantum yield ([2]; 1 mM solution in 100 mM phosphate buffer at pH 7.0 with 20% acetonitrile, actinometric standard): 0.22
- lifetime of the photohydrolysis reaction ([3]; triplet quenching measurements, Kuzmic et al.): 0.15 μs

SMILES: O=C(O)CNC(C(=O)O)c1ccccc1[N+](=O)[O-] (stereo not shown) [N-(.varies.-carboxy-2-nitrobenzyl)glycine]
- product quantum yield ([3]; Billington et al.): 0.02
- photolysis time constant τ ([3]; pH 7.5, Billington et al.): 1.6 ms

SMILES: C[N+](C)(C)CCOC(=O)NC(C(=O)O)c1ccccc1[N+](=O)[O-] (stereo not shown) [caged carbamoylcholine]
- biological activity before photolysis (acetylcholine receptor): biologically inert
- time to liberate carbamoylcholine by a laser pulse ([3]; laser pulse, Milburn et al.): ≤ 120 μs
- photolysis t1/2 ([3]; photolysis to carbamoylcholine, Milburn et al.): 40 μs

SMILES: COc1ccc([N+](=O)[O-])cc1OC(=O)CN [caged glycine, 2-Methoxy-5-nitrophenyl glycine ester]
- speed of absorbance jump on photolysis with 337 nm light ([2]; 337 nm versus 308 nm light, excimer laser): as fast as the one induced by 308 nm light
- product quantum yield from photolysis ([2]; caged glycine, estimated by comparison to 2-methoxy-5-nitrophenyl acetate as actinometric standard): 0.2
- time within which caged glycine is photolyzed / converted to products ([2]; laser pulse, absorbance change at 380 nm, b60: 308 or 337 nm): ≤ 3 μs
- half-life ([4]; buffer, pH 4, pH 4.0, read-out: time constant τ for hydrolysis (converted)): ~3 h
- half-life ([4]; hepes buffer, pH 7.1, pH 7.1 (neutral pH, Hepes buffered solution), room temperature (22-24° C.), absorbance at 310 nm, read-out: time constant of spontaneous hydrolysis): 0.102 h
- effect of caged glycine on current response to free glycine ([1]; 170 μM glycine mixed 1:1 with 1.1 mM caged glycine ester in pH 4 buffer, versus control 85 μM free glycine): An identical response was produced
- activation of whole cell current by caged glycine ([1]; caged glycine at pH 4.0 mixed with external buffer, final pH 7.1, -40 mV, 22° C., mouse cortical neurons): did not activate any whole cell current
- effect on glycine receptors or their response to glycine [1]: Neither the caged compound nor the 2-methoxy-5-nitrophenol photolysis product affected the glycine receptors or modified their response to glycine
- inhibition or activation by caged glycine ([1]; mouse cortical neurons, pH 7.1, -40 mV): no observable inhibition or activation
- time thawed pH 4 solution could be used without detectable glycine currents in the preincubation baseline ([5]; frozen aliquots of freshly prepared caged glycine pH 4 solution, thawed before application with the mixer): up to 20 min
- opening of glycine receptor channels on irradiation ([5]; laser pulse at 337 nm, mouse cerebral cortical neurons equilibrated with caged glycine): glycine receptor channels were opened
- rate of rising phase of whole-cell current ([5]; lowest trace, 10 μm (so in the source) glycine released by photolysis): 42 s⁻¹
- rate of rising phase of whole-cell current ([5]; middle trace, 18 μM glycine released by photolysis): 40 s⁻¹
- rate of rising phase of whole-cell current ([5]; upper trace, 35 μM free glycine released by photolysis): 54 s⁻¹
